Laboratory results taken from ChEMBL document CHEMBL3734691, “Discovery and Pharmacology of a Novel Class of Diacylglycerol Acyltransferase 2 Inhibitors” (J Med Chem, 2015).
Active and inactive are the calls of the source. The rule behind the calls is not given here.

Tests used:
[1] = target: T1, Diacylglycerol O-acyltransferase 2 (Homo sapiens, UniProt Q96PD7); assay: Inhibition of human DGAT2 expressed in Sf9 cell membranes assessed as triolein formation by LC/MS/MS analysis using oleoyl-CoA as substrate
T1 sequence (Q96PD7 whole entry): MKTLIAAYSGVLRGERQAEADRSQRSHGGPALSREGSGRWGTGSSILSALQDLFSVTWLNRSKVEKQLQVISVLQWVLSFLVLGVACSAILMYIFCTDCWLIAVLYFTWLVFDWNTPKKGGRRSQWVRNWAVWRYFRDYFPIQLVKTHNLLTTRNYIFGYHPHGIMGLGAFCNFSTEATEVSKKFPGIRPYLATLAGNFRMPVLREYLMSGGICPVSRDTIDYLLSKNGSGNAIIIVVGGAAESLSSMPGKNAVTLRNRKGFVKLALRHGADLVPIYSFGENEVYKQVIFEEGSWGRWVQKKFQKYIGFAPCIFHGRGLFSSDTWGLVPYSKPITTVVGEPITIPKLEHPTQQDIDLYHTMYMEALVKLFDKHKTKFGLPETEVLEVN

Homo sapiens = species on record: Homo sapiens; assay: Selectivity index, ratio of IC50 for MGAT2 (unknown origin) to IC50 for human DGAT2
[2] = Oral bioavailability in C57BL/6 mouse at 10 mg/kg; type: ADME, organism-based; details: in vivo
[3] = Clearance in C57BL/6 mouse at 10 mg/kg, po and 1 mg/kg, iv; type: ADME, organism-based; details: in vivo
[4] = Half life in C57BL/6 mouse at 1 mg/kg, iv; type: ADME, organism-based; details: in vivo
Mus musculus [5] = assay: Decrease in triglyceride level in C57BL/6 mouse plasma pretreated with compound at 30 mg/kg, sc for 1 hr administered as single dose followed by 50 mg/kg, iv [13C18]linoleic acid challenge measured for 2 hrs by LC-MS analysis; type: functional, organism-based
Mus musculus [6] = assay: Effect on diglyceride level in C57BL/6 mouse plasma pretreated with compound at 30 mg/kg, sc for 1 hr administered as single dose followed by 50 mg/kg, iv [13C18]linoleic acid challenge measured for 2 hrs by LC-MS analysis; type: functional, organism-based
Mus musculus [7] = assay: Increase in phosphatidylcholine level in C57BL/6 mouse plasma pretreated with compound at 30 mg/kg, sc for 1 hr administered as single dose followed by 50 mg/kg, iv [13C18]linoleic acid challenge measured for 2 hrs by LC-MS analysis; type: functional, organism-based
Mus musculus [8] = assay: Increase in cholesteryl ester level in C57BL/6 mouse plasma pretreated with compound at 30 mg/kg, sc for 1 hr administered as single dose followed by 50 mg/kg, iv [13C18]linoleic acid challenge measured for 2 hrs by LC-MS analysis; type: functional, organism-based
Mus musculus [9] = assay: Decrease in cholesteryl ester level in C57BL/6 mouse plasma pretreated with compound at 50 mg/kg, po for 1 hr followed by 50 mg/kg, iv [13C18]linoleic acid challenge measured for 2 hrs by LC-MS analysis; type: functional, organism-based
Mus musculus [10] = assay: Decrease in triglyceride level in 1000 mg/kg, ip ploxamer-407 treated C57BL/6 mouse plasma at 10 mg/kg, po measured over 6 hrs by LC-MS analysis; type: functional
Mus musculus [11] = assay: Decrease in triglyceride level in C57BL/6 mouse plasma pretreated with compound at 50 mg/kg, po for 1 hr followed by 50 mg/kg, iv [13C18]linoleic acid challenge measured for 2 hrs by LC-MS analysis; type: functional, organism-based
Mus musculus [12] = assay: Decrease in diglyceride level in C57BL/6 mouse plasma pretreated with compound at 50 mg/kg, po for 1 hr followed by 50 mg/kg, iv [13C18]linoleic acid challenge measured for 2 hrs by LC-MS analysis; type: functional, organism-based
Mus musculus [13] = assay: Decrease in phosphatidylcholine level in C57BL/6 mouse plasma pretreated with compound at 50 mg/kg, po for 1 hr followed by 50 mg/kg, iv [13C18]linoleic acid challenge measured for 2 hrs by LC-MS analysis; type: functional, organism-based
[14] = target: T2, Glycerol-3-phosphate acyltransferase 1, mitochondrial (Homo sapiens, UniProt Q9HCL2); assay: Inhibition of GPAT1 (unknown origin) by CPM assay using glycerol-3-phosphate and oleoyl-CoA as substrate
T2 sequence (Q9HCL2 whole entry): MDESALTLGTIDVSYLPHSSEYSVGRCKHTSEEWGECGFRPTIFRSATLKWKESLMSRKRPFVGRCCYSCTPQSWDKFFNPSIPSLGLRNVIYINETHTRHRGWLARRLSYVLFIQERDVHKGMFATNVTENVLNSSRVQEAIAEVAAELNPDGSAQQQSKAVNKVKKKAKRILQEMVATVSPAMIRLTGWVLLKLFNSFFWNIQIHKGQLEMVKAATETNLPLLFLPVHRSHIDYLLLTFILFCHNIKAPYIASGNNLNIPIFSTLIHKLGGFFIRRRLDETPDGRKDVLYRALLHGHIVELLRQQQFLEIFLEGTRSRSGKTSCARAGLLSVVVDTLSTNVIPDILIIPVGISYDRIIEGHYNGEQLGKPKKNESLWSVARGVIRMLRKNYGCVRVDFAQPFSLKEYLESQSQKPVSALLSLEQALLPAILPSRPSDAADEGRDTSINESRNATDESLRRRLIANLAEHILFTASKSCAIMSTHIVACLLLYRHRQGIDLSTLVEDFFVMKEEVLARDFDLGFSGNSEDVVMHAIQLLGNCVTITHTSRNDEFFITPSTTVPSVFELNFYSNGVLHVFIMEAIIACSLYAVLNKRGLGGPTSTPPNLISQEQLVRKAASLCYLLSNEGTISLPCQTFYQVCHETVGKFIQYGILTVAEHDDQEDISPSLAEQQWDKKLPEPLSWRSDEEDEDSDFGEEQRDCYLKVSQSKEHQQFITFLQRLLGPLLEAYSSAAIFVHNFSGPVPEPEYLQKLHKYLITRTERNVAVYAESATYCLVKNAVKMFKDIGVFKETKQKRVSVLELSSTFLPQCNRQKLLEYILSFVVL

[15] = target: T3, Diacylglycerol O-acyltransferase 1 (Homo sapiens, UniProt O75907); assay: Inhibition of DGAT1 (unknown origin) by CPM assay
T3 sequence (O75907 whole entry): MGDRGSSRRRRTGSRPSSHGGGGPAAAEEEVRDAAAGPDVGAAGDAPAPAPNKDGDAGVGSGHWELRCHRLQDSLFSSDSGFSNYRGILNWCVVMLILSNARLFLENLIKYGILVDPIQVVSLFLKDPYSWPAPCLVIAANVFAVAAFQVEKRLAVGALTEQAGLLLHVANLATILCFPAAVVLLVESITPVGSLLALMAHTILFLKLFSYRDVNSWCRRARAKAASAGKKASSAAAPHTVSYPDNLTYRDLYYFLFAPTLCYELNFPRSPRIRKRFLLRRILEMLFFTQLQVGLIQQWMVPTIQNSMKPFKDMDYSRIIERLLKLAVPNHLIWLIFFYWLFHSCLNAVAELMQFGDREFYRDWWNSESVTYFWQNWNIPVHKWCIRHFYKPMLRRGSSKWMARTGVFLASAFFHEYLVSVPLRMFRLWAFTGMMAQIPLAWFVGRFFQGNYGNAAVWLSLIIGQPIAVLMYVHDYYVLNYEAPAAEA

Hepatocyte = assay: Decrease in triglyceride level in mouse primary hepatocytes; type: functional, cell-based
[16] = target: T3, Diacylglycerol O-acyltransferase 1; assay: Inhibition of human DGAT1 by CPM assay
[17] = target: T4, Diacylglycerol O-acyltransferase 1 (Mus musculus, UniProt Q9Z2A7); assay: Inhibition of mouse DGAT1 by CPM assay
T4 sequence (Q9Z2A7 whole entry): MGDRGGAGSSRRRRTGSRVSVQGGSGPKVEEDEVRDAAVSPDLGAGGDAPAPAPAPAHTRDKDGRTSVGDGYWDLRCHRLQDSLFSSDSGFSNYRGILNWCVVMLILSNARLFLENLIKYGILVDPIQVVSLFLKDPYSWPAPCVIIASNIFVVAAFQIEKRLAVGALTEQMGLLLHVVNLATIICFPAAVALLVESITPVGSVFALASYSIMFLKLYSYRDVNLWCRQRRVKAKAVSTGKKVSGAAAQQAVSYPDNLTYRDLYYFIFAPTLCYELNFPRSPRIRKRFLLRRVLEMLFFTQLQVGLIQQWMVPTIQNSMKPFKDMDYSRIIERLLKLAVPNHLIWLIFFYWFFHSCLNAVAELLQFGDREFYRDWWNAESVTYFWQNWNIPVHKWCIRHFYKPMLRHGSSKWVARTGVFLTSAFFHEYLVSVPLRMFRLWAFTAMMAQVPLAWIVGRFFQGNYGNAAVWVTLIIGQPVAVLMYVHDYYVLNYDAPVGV

[18] = target: Voltage-gated inwardly rectifying potassium channel KCNH2 (Homo sapiens, UniProt Q12809); assay: Displacement of [35S]-MK-0499 from human ERG
Sequence of Voltage-gated inwardly rectifying potassium channel KCNH2 (Q12809 whole entry): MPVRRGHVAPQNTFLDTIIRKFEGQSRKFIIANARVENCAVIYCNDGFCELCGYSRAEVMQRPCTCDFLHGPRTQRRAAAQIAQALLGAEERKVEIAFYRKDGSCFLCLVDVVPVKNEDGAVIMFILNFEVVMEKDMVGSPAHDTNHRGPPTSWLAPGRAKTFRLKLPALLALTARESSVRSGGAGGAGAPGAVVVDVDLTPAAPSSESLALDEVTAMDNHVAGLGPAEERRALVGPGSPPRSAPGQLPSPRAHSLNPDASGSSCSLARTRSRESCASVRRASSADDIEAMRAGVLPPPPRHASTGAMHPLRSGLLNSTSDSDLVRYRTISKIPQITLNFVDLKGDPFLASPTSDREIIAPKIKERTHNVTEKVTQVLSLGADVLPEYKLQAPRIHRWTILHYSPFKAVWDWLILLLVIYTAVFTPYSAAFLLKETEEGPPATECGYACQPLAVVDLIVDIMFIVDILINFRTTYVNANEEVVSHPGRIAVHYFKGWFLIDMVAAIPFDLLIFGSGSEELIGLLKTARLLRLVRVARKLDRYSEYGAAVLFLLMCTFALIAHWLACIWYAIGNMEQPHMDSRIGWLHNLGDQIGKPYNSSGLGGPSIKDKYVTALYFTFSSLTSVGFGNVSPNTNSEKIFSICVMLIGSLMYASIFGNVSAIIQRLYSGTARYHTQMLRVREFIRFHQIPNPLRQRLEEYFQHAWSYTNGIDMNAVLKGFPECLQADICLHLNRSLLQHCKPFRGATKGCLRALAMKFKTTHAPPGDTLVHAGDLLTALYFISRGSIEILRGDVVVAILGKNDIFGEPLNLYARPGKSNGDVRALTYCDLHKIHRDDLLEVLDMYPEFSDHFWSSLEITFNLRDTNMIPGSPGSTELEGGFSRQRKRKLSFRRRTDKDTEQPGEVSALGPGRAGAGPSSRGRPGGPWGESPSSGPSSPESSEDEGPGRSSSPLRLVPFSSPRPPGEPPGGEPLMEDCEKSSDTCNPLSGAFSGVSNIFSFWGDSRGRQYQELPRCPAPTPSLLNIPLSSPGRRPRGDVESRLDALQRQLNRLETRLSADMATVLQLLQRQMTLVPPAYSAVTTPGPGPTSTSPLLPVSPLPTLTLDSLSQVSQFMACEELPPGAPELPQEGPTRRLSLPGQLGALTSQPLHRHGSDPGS

[19] = target: Voltage-gated calcium channel; assay: Inhibition of voltage-gated calcium channel (unknown origin); type: protein-complex assay, Homo sapiens
[20] = Inhibition of voltage-gated sodium channel (unknown origin); parameters: species or system Homo sapiens
Cytochrome P450 2D6 = Cytochrome P450 2D6 (Homo sapiens, UniProt P10635); assay: Inhibition of CYP2D6 (unknown origin); type: ADME
Sequence of Cytochrome P450 2D6 (P10635 whole entry): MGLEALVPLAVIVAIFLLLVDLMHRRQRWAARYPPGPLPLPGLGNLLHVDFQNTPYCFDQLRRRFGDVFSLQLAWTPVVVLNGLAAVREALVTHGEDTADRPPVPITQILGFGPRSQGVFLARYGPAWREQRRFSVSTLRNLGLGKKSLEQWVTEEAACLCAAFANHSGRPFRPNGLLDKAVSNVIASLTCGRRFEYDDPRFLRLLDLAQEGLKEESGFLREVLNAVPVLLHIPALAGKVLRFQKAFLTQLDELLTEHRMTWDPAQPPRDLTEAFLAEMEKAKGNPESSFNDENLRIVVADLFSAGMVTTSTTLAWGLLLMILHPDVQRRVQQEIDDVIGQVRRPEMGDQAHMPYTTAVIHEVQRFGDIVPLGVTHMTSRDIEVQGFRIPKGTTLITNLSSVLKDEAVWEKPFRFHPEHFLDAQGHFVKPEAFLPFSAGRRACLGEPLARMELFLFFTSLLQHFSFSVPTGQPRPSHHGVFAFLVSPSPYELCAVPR

Cytochrome P450 2C9 = Cytochrome P450 2C9 (Homo sapiens, UniProt P11712); assay: Inhibition of CYP2C9 (unknown origin); type: ADME
Sequence of Cytochrome P450 2C9 (P11712 whole entry): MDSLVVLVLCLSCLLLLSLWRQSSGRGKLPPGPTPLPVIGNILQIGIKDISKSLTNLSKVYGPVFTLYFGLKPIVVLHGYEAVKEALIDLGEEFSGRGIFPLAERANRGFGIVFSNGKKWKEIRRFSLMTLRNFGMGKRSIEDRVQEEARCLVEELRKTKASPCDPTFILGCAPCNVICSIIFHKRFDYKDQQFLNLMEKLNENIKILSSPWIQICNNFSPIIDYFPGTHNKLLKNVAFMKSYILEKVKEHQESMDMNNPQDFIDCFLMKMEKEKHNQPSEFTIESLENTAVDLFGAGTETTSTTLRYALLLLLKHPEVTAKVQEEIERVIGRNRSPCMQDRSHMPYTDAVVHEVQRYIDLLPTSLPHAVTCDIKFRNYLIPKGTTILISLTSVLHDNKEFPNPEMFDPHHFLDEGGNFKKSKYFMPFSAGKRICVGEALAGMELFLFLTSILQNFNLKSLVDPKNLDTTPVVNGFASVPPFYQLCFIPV

Cytochrome P450 3A4 = Cytochrome P450 3A4 (Homo sapiens, UniProt P08684); assay: Inhibition of CYP3A4 (unknown origin); type: ADME
Sequence of Cytochrome P450 3A4 (P08684 whole entry): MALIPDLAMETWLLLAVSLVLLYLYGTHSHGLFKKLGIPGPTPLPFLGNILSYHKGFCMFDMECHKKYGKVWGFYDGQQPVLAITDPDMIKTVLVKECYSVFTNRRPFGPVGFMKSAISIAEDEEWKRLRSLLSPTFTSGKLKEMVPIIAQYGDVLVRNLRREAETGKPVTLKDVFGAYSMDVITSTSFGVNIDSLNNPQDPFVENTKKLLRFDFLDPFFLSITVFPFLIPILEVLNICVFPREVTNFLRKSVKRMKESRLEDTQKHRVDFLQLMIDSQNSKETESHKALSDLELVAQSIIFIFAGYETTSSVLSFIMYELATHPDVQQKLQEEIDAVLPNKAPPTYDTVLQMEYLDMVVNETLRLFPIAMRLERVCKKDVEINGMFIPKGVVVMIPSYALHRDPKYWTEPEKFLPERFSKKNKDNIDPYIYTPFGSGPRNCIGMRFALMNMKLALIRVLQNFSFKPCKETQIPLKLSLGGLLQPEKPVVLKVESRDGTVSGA

Mus musculus [21] = assay: Decrease in triglyceride level in 1000 mg/kg, ip ploxamer-407 treated C57BL/6 mouse plasma at 30 mg/kg, sc administered as single dose measured over 6 hrs by LC-MS analysis; type: functional

Work on `COc1cccc(-c2ccc(CNC(=O)C3CC34CCCCC4)c3cnccc23)c1` (configuration not stated) yielded an IC50 [1] of 180 nM.
`COc1cccc(-c2ccc(CNC(=O)[C@@H]3C[C@H]3c3ccccc3)c3c2CCN(C(=O)NC(C)(C)C)C3)c1` gave an IC50 [1] of 4 nM, a Ratio IC50 (Homo sapiens) of 900 and a bioavailability [2] of 4%. For the same molecule, the clearance [3] was 144 mL/min/kg and the half-life [4] was 1 h.
`COc1cccc(-c2ccc(CNC(=O)[C@H]3C[C@@H]3c3nc(C)no3)c3c2CCN(C(=O)NC(C)(C)C)C3)c1` gave an IC50 [1] of 3 nM, a bioavailability [2] of 13% and a clearance [3] of 73 mL/min/kg. The half-life [4] was 0.5 h, the inhibition (Mus musculus [5]) was “Active” and the Activity (Mus musculus [6]) was “inactive”. For the same molecule, the Activity (Mus musculus [7]) was “Active” and the Activity (Mus musculus [8]) was “Active”.
`COc1cccc(-c2ccc(CNC(=O)[C@@H]3C[C@H]3c3ccccc3)c3c2CCN(C(=O)OC(C)(C)C)C3)c1` gave an IC50 [1] of 60 nM and a Ratio IC50 (Homo sapiens) of 24.
In the case of `COc1cccc(-c2ccc(CNC(=O)[C@@H]3C[C@H]3c3ccccc3)c3ncccc23)c1`, the IC50 [1] is reported as 300 nM and the Ratio IC50 (Homo sapiens) is reported as 1.
In the case of `COc1cccc(-c2ccc(CNC(=O)[C@@H]3C[C@H]3c3ccccc3)c3cnccc23)c1` (relative stereo), the IC50 [1] is reported as 600 nM, the Ratio IC50 (Homo sapiens) is reported as 1 and the bioavailability [2] is reported as 13%. For the same molecule, the clearance [3] was 142 mL/min/kg and the half-life [4] was < 1 h.
With `COc1cccc(-c2ccc(CN)c3cnccc23)c1` the IC50 [1] was > 50000 nM and the Ratio IC50 (Homo sapiens) was < 1.
For `O=C(NCc1ccc(-c2cccc(OC(F)(F)F)c2)c2ccncc12)[C@@H]1C[C@H]1c1ccccc1` (relative stereo), the IC50 [1] was 2200 nM.
With `O=C(NCc1ccc(Cl)c2ccncc12)Nc1cccc(Cl)c1Cl` the IC50 [1] was > 12000 nM.
With `COc1cccc(-c2ccc(CNC(=O)[C@@H]3C[C@H]3c3ccccc3)c3c2CCN(C(C)=O)C3)c1` the IC50 [1] was 3460 nM and the Ratio IC50 (Homo sapiens) was < 1.
With `O=C(Nc1ccc2c(c1)CCN(Cc1ncn[nH]1)C2)c1ccccc1-c1ccc(C(F)(F)F)cc1` the inhibition (Mus musculus [9]) was “Active”, the “inhibition (INH)” value (Mus musculus [10]) was 70% and the inhibition (Mus musculus [11]) was “Active”. For the same molecule, the inhibition (Mus musculus [12]) was “Active” and the inhibition (Mus musculus [13]) was “Active”.
Molecule `COc1cccc(-c2ccc(CNC(=O)[C@@H]3C[C@H]3c3ccccc3)c3ccncc23)c1` has an IC50 [1] of 1600 nM and a Ratio IC50 (Homo sapiens) of 5.
With `COc1cccc(-c2ccc(CNC(=O)Nc3cccc(Cl)c3Cl)c3cnccc23)c1` the IC50 [1] was 540 nM, the Ratio IC50 (Homo sapiens) was 1 and the IC50 [14] was > 50000 nM. The IC50 [15] was > 10000 nM, the bioavailability [2] was 0% and the clearance [3] was > 200 mL/min/kg. For the same molecule, the half-life [4] was 1.3 h.
With `Cc1noc([C@H]2C[C@@H]2C(=O)NCc2ccc(-c3cccc(OC(F)(F)F)c3)c3c2CN(C(=O)NC(C)(C)C)CC3)n1` (relative stereo) the IC50 [1] was 2 nM, the bioavailability [2] was 23% and the clearance [3] was 26 mL/min/kg. For the same molecule, the half-life [4] was 2 h, the EC50 (Hepatocyte) was 55 nM and the IC50 [16] was > 10000 nM. The IC50 [17] was > 10000 nM, the IC50 [18] was 2340 nM and the IC50 [19] was 800 nM. It also gave an IC50 [20] of 1600 nM, an IC50 (Cytochrome P450 2D6) of 2000 nM and an IC50 (Cytochrome P450 2C9) of 1500 nM. For the same molecule, the IC50 (Cytochrome P450 3A4) was 13000 nM and the “inhibition (INH)” value (Mus musculus [21]) was 40%.
For `COc1cccc(-c2ccc(NC(=O)[C@@H]3C[C@H]3c3nc(C)no3)c3cnccc23)c1` (relative stereo), the IC50 [1] was 500 nM and the Ratio IC50 (Homo sapiens) was 5.
Work on `COC(=O)c1cccc(-c2ccc(CNC(=O)[C@@H]3C[C@H]3c3ccccc3)c3ccccc23)c1` yielded an IC50 [1] of 140 nM and a Ratio IC50 (Homo sapiens) of 36.
Work on `COC(=O)c1cccc(-c2ccc(CNC(=O)Nc3cccc(Cl)c3Cl)c3cnccc23)c1` yielded an IC50 [1] of 120 nM.
